The test concerns P388 leukemia ip, CD2F1 mice, survival T/C. Kind of test: NCI In Vivo Anticancer Drug Screen. Data for tumor model P388 Leukemia (intraperitoneal) in CD2F1 (CDF1) mice. Particulars: endpoint: median survival time, higher = longer survival. The essentials:
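Mice carrying the transplanted tumor received test compound or vehicle. Survival was recorded in each group, and the value is the treated-group measurement divided by that of the vehicle-treated control group.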

The mark [1] stands for this setting: dose: 100.0 mg/kg/injection, schedule: Q04DX002 (ip), vehicle: saline with Tween-80.
[2] abbreviates: dose: 200.0 mg/kg/injection, schedule: Q04DX002 (ip), vehicle: saline with Tween-80.
[3] abbreviates: dose: 50.0 mg/kg/injection, schedule: Q01DX009 (ip), vehicle: Klucel (hydroxypropylcellulose) (HPC).
[4] abbreviates: dose: 100.0 mg/kg/injection, schedule: Q01DX009 (ip), vehicle: Klucel (hydroxypropylcellulose) (HPC).
The mark [5] stands for this setting: dose: 200.0 mg/kg/injection, schedule: Q01DX009 (ip), vehicle: Klucel (hydroxypropylcellulose) (HPC).
Setting [6] is: dose: 50.0 mg/kg/injection, schedule: Q01DX009 (ip), vehicle: saline with Tween-80.
Setting [7] is: dose: 6.25 mg/kg/injection, schedule: Q01DX009 (ip), vehicle: distilled water + Tween-80.
Where [8] appears, read: dose: 12.5 mg/kg/injection, schedule: Q01DX009 (ip), vehicle: distilled water + Tween-80.
[9] abbreviates: dose: 25.0 mg/kg/injection, schedule: Q01DX009 (ip), vehicle: distilled water + Tween-80.
The mark [10] stands for this setting: dose: 100.0 mg/kg/injection, schedule: Q01DX009 (ip), vehicle: saline with Tween-80.
The mark [11] stands for this setting: dose: 200.0 mg/kg/injection, schedule: Q01DX009 (ip), vehicle: saline with Tween-80.
Where [12] appears, read: dose: 60.0 mg/kg/injection, schedule: Q01DX005 (ip), vehicle: saline with Tween-80.
[13] abbreviates: dose: 120.0 mg/kg/injection, schedule: Q01DX005 (ip), vehicle: saline with Tween-80.
Where [14] appears, read: dose: 240.0 mg/kg/injection, schedule: Q01DX005 (ip), vehicle: saline with Tween-80.

Values joined by “and” are separate entries in the source; they are usually repeats but may differ in a detail not shown here. Equal entries are not always repeated. Inconclusive results and toxic doses are left out.

Turning to `COc1cccc2c1C(=O)c1c(O)c3c(c(O)c1C2=O)C[C@@](O)(/C(C)=N/NC(=O)c1cccs1)C[C@@H]3OC1CC(N)C(O)C(C)O1` (some centres undefined), the T/C runs as follows: (dose: 1.56 mg/kg/injection, schedule: Q04DX003 (ip), vehicle: saline) 169 % of control; (dose: 3.13 mg/kg/injection, schedule: Q04DX003 (ip), vehicle: saline) 178 % of control; (dose: 6.25 mg/kg/injection, schedule: Q04DX003 (ip), vehicle: saline) 191 % of control; (dose: 12.5 mg/kg/injection, schedule: Q04DX003 (ip), vehicle: saline) 206 % of control; (dose: 25.0 mg/kg/injection, schedule: Q04DX003 (ip), vehicle: saline) 104 % of control.
With `Cc1ccc2oc3c(ccc(=O)n3C)c(=O)c2c1`, the T/C is 101 % of control under setting [1]; 100 % of control under setting [2]; 98 % of control (dose: 400.0 mg/kg/injection, schedule: Q04DX002 (ip), vehicle: saline with Tween-80).
With `CCN(C(=O)CNCC(C)C)c1ccc(C)c(Cl)c1`, the T/C by setting is: (dose: 50.0 mg/kg/injection, schedule: Q01DX005 (ip), vehicle: saline) 100 % of control; (dose: 100.0 mg/kg/injection, schedule: Q01DX005 (ip), vehicle: saline) 99 % of control.
On to `Nc1cc(=O)cc2nn[nH]n12`, for which the T/C was 102 % of control under setting [3], 108 % of control under setting [4] and 101 % of control under setting [5].
As to `CC1SC2(C(=O)N(CN3CCCCC3)c3ccccc32)N(c2ccccc2)C1=O` (centres undefined), the T/C was 90 % of control (dose: 50.0 mg/kg/injection, schedule: Q01DX005 (ip), vehicle: Klucel (hydroxypropylcellulose) (HPC)); 100 % of control (dose: 100.0 mg/kg/injection, schedule: Q01DX005 (ip), vehicle: Klucel (hydroxypropylcellulose) (HPC)); 94 % of control (dose: 200.0 mg/kg/injection, schedule: Q01DX005 (ip), vehicle: Klucel (hydroxypropylcellulose) (HPC)).
Regarding `CCOC(=O)Sc1ncnc2nc[nH]c12`, the T/C (dose: 33.0 mg/kg/injection, schedule: Q01DX009 (ip), vehicle: saline with Tween-80) is 113 % of control; the T/C under setting [6] was 122 % of control; the T/C (dose: 75.0 mg/kg/injection, schedule: Q01DX009 (ip), vehicle: saline with Tween-80) is 122 % of control; the T/C (dose: 100.0 mg/kg/injection, schedule: Q04DX003 (ip), vehicle: saline with Tween-80) was 104 % of control; the T/C (dose: 200.0 mg/kg/injection, schedule: Q04DX003 (ip), vehicle: saline with Tween-80) was 108 % of control.
Take `CCN(CC)Cc1c(C)nc2ccc(N(C)C)cc2c1Cl`: the T/C reads like this: (dose: 12.5 mg/kg/injection, schedule: Q01DX009 (ip), vehicle: Klucel (hydroxypropylcellulose) (HPC)) 115 % of control; (dose: 25.0 mg/kg/injection, schedule: Q01DX009 (ip), vehicle: Klucel (hydroxypropylcellulose) (HPC)) 110 % of control; under setting [3], 100 % of control and 96 % of control.
As to `CNC(=O)OCc1nn(-c2ccc(Cl)cc2)c(C)c1COC(=O)NC`, the T/C by setting is: (dose: 1.56 mg/kg/injection, schedule: Q01DX009 (ip), vehicle: distilled water + Tween-80) 103 % of control; (dose: 3.12 mg/kg/injection, schedule: Q01DX009 (ip), vehicle: distilled water + Tween-80) 100 % of control; under setting [7], 97 % of control; under setting [8], 101 % of control and 89 % of control and 95 % of control; under setting [9], 93 % of control; (dose: 100.0 mg/kg/injection, schedule: Q01DX009 (ip), vehicle: distilled water + Tween-80) 101 % of control and 93 % of control. The T/C (dose: 200.0 mg/kg/injection, schedule: Q01DX009 (ip), vehicle: distilled water + Tween-80) was 102 % of control and 108 % of control.
Regarding `CC(=O)On1nnc2ccccc2c1=O`, the T/C was 97 % of control under setting [7], 100 % of control under setting [8] and 97 % of control under setting [9].
For the compound `COc1cc2c(cc1C1CCCCCc3c1n(C)c1ccccc31)C1CCCCC1N2C` (centres undefined), the T/C is, setting by setting: (dose: 12.5 mg/kg/injection, schedule: Q01DX001 (ip), vehicle: distilled water + Tween-80) 108 % of control; (dose: 25.0 mg/kg/injection, schedule: Q01DX001 (ip), vehicle: distilled water + Tween-80) 116 % of control; (dose: 50.0 mg/kg/injection, schedule: Q01DX001 (ip), vehicle: distilled water + Tween-80) 101 % of control; (dose: 100.0 mg/kg/injection, schedule: Q01DX001 (ip), vehicle: distilled water + Tween-80) 111 % of control; (dose: 200.0 mg/kg/injection, schedule: Q01DX001 (ip), vehicle: distilled water + Tween-80) 111 % of control.
Regarding `O=C1c2ccccc2C(=O)c2c1cc1cccccc2-1`, the T/C is, setting by setting: (dose: 3.13 mg/kg/injection, schedule: Q01DX005 (ip), vehicle: saline with Tween-80) 99 % of control; (dose: 6.25 mg/kg/injection, schedule: Q01DX005 (ip), vehicle: saline with Tween-80) 97 % of control; (dose: 12.5 mg/kg/injection, schedule: Q01DX005 (ip), vehicle: saline with Tween-80) 90 % of control and 91 % of control; (dose: 50.0 mg/kg/injection, schedule: Q01DX005 (ip), vehicle: saline with Tween-80) 89 % of control; (dose: 200.0 mg/kg/injection, schedule: Q01DX005 (ip), vehicle: saline with Tween-80) 95 % of control.
Take `ClCc1cccc2c(CCl)cccc12`: the T/C reads like this: (dose: 12.5 mg/kg/injection, schedule: Q01DX009 (ip), vehicle: saline with Tween-80) 113 % of control; (dose: 25.0 mg/kg/injection, schedule: Q01DX009 (ip), vehicle: saline with Tween-80) 110 % of control and 124 % of control; under setting [6], 121 % of control.
`COc1ccc(N(CN2C(=O)CCC2=O)CS(=O)(=O)c2ccc(C)cc2)cc1`: the T/C is 100 % of control (dose: 60.0 mg/kg/injection, schedule: Q01DX005 (ip), vehicle: Klucel (hydroxypropylcellulose) (HPC)); 100 % of control (dose: 120.0 mg/kg/injection, schedule: Q01DX005 (ip), vehicle: Klucel (hydroxypropylcellulose) (HPC)); 100 % of control (dose: 240.0 mg/kg/injection, schedule: Q01DX005 (ip), vehicle: Klucel (hydroxypropylcellulose) (HPC)).
As to `COc1cc2oc3cc(=O)cc4oc(-c5ccccc5)cc(c2c2c1CCC(c1ccccc1)O2)c43` (centres undefined), the T/C is, setting by setting: (dose: 3.25 mg/kg/injection, schedule: Q01DX005 (ip), vehicle: Klucel + Tween-80) 98 % of control; (dose: 6.5 mg/kg/injection, schedule: Q01DX005 (ip), vehicle: Klucel + Tween-80) 99 % of control; (dose: 13.0 mg/kg/injection, schedule: Q01DX005 (ip), vehicle: Klucel + Tween-80) 103 % of control; (dose: 26.0 mg/kg/injection, schedule: Q01DX005 (ip), vehicle: Klucel + Tween-80) 107 % of control.
In the case of `CC(C)(C)c1cc(C(=O)O)c2soc(=O)c2c1`, the T/C under setting [3] is 106 % of control, the T/C under setting [4] is 109 % of control and the T/C under setting [5] is 111 % of control.
As for `CC(=O)c1c(OCC(O)CN2CCCCC2)ccc2c(C)cc(=O)oc12` (centres undefined), the T/C was 100 % of control under setting [1] and 101 % of control under setting [2].
Turning to `CC1(C)CN2C(c3ccccc3)=NN(c3ccccc3)C2(C)C1` (centres undefined), the T/C was 98 % of control (dose: 100.0 mg/kg/injection, schedule: Q01DX001 (ip), vehicle: saline with Tween-80); 99 % of control (dose: 200.0 mg/kg/injection, schedule: Q01DX001 (ip), vehicle: saline with Tween-80); 100 % of control (dose: 400.0 mg/kg/injection, schedule: Q01DX001 (ip), vehicle: saline with Tween-80).
As to `Nc1ccccc1-c1cncnc1N`, the T/C reads like this: under setting [10], 98 % of control; under setting [11], 101 % of control; (dose: 400.0 mg/kg/injection, schedule: Q01DX009 (ip), vehicle: saline with Tween-80) 106 % of control.
As for `COC(=O)c1nnn(-c2ccc(Cl)cc2Cl)c1C(=O)c1ccc(Cl)c(Cl)c1`, the T/C runs as follows: under setting [12], 101 % of control; under setting [13], 100 % of control; under setting [14], 95 % of control.
As to `CCn1c2ccccc2c2cc(N=Nc3cc4ccccc4[nH]3)ccc21`, the T/C is 115 % of control under setting [6], 113 % of control under setting [10] and 113 % of control under setting [11].
On to `C#CCSc1n[nH]c(-c2ccco2)n1`, for which the T/C by setting is: under setting [12], 101 % of control; under setting [13], 105 % of control; under setting [14], 105 % of control.

These data come from PubChem BioAssay AID330 (DTP/NCI, 2004).
